Assay results as given in US10336762B2 (priority 2017, dated 2019).
Where two headings read alike, the source gives them in different places.

Legend:
TNFα = experiment: cells; type: cell-based, human; details: Homo sapiens, Monocyte, read-out: EC50 TNF
IRAK4 enzyme = IRAK4 enzyme (Homo sapiens (Human), UniProt Q9NWZ3); experiment: biochemical; type: biochemical
[1] = LPS-stimulated human monocytes, TNFα content
[2] = IRAK4 enzyme, TR-FRET (HTRF), 500 μM ATP
[3] = IRAK4 enzyme, TR-FRET, 500 μM ATP
[4] = LPS-stimulated human monocytes, TNFα by TR-FRET

Sequence of IRAK4 enzyme (Q9NWZ3 whole entry): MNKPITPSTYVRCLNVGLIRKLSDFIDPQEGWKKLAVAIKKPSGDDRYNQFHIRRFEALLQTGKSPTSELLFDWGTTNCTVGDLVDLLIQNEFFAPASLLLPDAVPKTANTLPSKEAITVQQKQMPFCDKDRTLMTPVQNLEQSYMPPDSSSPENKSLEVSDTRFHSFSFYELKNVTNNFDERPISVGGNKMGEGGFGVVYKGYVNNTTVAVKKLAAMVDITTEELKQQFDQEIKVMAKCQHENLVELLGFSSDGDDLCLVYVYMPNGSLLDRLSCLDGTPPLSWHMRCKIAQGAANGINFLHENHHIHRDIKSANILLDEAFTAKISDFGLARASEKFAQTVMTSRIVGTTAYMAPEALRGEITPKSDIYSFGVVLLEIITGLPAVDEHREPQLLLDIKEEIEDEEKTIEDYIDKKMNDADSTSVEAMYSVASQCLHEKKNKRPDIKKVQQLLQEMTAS

Structure (SMILES) | EC50 (TNFα; [1]) | IC50 (IRAK4 enzyme; [2]) | IC50 (IRAK4 enzyme; [3]) | further results
CC(=O)NC12CC(Nc3cc(-c4ccc5cc(C#N)cnn45)ncc3C(=O)NCC#N)(C1)C2 [Example 496, 4-((3-acetamidobicyclo[1.1.1]pentan-1-yl)amino)-N-(cyanomethyl)-6-(3-cyanopyrrolo[1,2-b]pyridazin-7-yl)nicotinamide] | 42 nM | < 1 nM | – | –
CC1(O)CC2(CC(Nc3cc(-c4ccc5cc(C#N)cnn45)ncc3C(=O)NC[C@@H](F)C(C)(C)O)C2)C1 (stereo partly drawn) [Example 510, (R)-6-(3-cyanopyrrolo[1,2-b]pyridazin-7-yl)-N-(2-fluoro-3-hydroxy-3-methylbutyl)-4-((6-hydroxy-6-methylspiro[3.3]heptan-2-yl)amino)nicotinamide] | 39 nM | < 1 nM | – | –
CC1(C(=O)N[C@H]2CC[C@H](Nc3cc(-c4ccc5cc(C#N)cnn45)ncc3C(=O)NC[C@@H](F)C(C)(C)O)CC2)COC1 [Example 282, 6-(3-cyanopyrrolo[1,2-b]pyridazin-7-yl)-N-((R)-2-fluoro-3-hydroxy-3-methylbutyl)-4-(((1r,4R)-4-(3-methyloxetane-3-carboxamido)cyclohexyl)amino)nicotinamide] | – | – | – | EC50 (TNFα): 364 nM; IC50 (IRAK4 enzyme): 2 nM
CC(C)(O)[C@H](F)CNC(=O)c1cnc(-c2ccc3cc(C#N)cnn23)cc1Nc1ccc(-c2c[nH]cn2)cc1 [Example 234, (R)-4-((4-(1H-imidazol-4-yl)phenyl)amino)-6-(3-cyanopyrrolo[1,2-b]pyridazin-7-yl)-N-(2-fluoro-3-hydroxy-3-methylbutyl) nicotinamide] | 33 nM | – | < 1 nM | –
CC(C)(O)[C@H](F)CNC(=O)c1cnc(-c2ccc3cc(C#N)cnn23)cc1Nc1ccc(F)nc1 [Example 599, (R)-6-(3-cyano-pyrrolo[1,2-b]pyridazin-7-yl)-N-(2-fluoro-3-hydroxy-3-methylbutyl)-4-((6-fluoro-pyridin-3-yl)amino) nicotinamide] | 68 nM | < 1 nM | – | –
N#Cc1cnn2c(-c3cc(N[C@H]4CCC[C@@H](O)C4)c(C(=O)N[C@H]4CC[C@H](NC(=O)C5CC5)CC4)cn3)ccc2c1 [Example 527, 6-(3-cyanopyrrolo[1,2-b]pyridazin-7-yl)-N-((1r,4S)-4-(cyclopropane-carboxamido)cyclohexyl)-4-(((1S,3R)-3-hydroxycyclo-hexyl)amino)nicotinamide] | 16 nM | < 1 nM | – | –
N#CCNC(=O)c1cnc(-c2ccc3cc(C#N)cnn23)cc1NC1CC1 [Example 461, N-(cyanomethyl)-6-(3-cyanopyrrolo[1,2-b]pyridazin-7-yl)-4-(cyclopropylamino) nicotinamide] | 57 nM | < 1 nM | – | –
COC(=O)NC(C)(C)CCNc1cc(-c2ccc3cc(C#N)cnn23)ncc1C(=O)NC[C@@H](F)C(C)(C)O [Example 727, (R)-methyl (4-((2-(3-cyanopyrrolo[1,2-b]pyridazin-7-yl)-5-((2-fluoro-3-hydroxy-3-methylbutyl)carbamoyl)pyridin-4-yl)amino)-2-methylbutan-2-yl)carbamate] | 203 nM | 3 nM | – | –
CC(C)(O)[C@H](F)CNC(=O)c1cnc(-c2ccc3cc(C#N)cnn23)cc1Nc1cnc2c(c1)OCCO2 [Example 850, (R)-6-(3-cyanopyrrolo[1,2-b]pyridazin-7-yl)-4-((2,3-dihydro-[1,4]dioxino[2,3-b]pyridin-7-yl)amino)-N-(2-fluoro-3-hydroxy-3-methylbutyl)nicotinamide] | – | – | < 1 nM | EC50 (TNFα; [4]): 10 nM
COCC1(Nc2cc(-c3ccc4cc(C#N)cnn34)ncc2C(=O)NC[C@@H](F)C(C)(C)O)CC1 [Example 112, (R)-6-(3-cyano-pyrrolo[1,2-b]pyridazin-7-yl)-N-(2-fluoro-3-hydroxy-3-methylbutyl)-4-((1-(methoxymethyl)cyclopropyl)amino)nicotinanide] | 399 nM | – | 4 nM | –
CC(C)(O)[C@H](F)CNC(=O)c1cnc(-c2ccc3cc(C#N)cnn23)cc1Nc1cccc(-c2cnc[nH]2)c1 [Example 219, (R)-4-((3-(1H-imidazol-5-yl)phenyl)amino)-6-(3-cyanopyrrolo[1,2-b]pyridazin-7-yl)-N-(2-fluoro-3-hydroxy-3-methylbutyl)nicotinamide] | 209 nM | – | 1 nM | –
CC(C)(O)[C@H](F)CNC(=O)c1cnc(-c2ccc3cc(C#N)cnn23)cc1NC1CC2(CCN(CC(F)(F)F)C2)C1 (stereo partly drawn) [Example 904, (R)-6-(3-cyanopyrrolo[1,2-b]pyridazin-7-yl)-N-(2-fluoro-3-hydroxy-3-methylbutyl)-4-((6-(2,2,2-trifluoroethyl)-6-aza-spiro[3.4]octan-2-yl)amino)nicotinamide] | – | – | 1 nM | EC50 (TNFα; [4]): 117 nM
CC(C)(O)[C@H](F)CNC(=O)c1cnc(-c2ccc3cc(C#N)cnn23)cc1N[C@H]1C[C@](C)(O)C1 [Example 446, 6-(3-cyanopyrrolo[1,2-b]pyridazin-7-yl)-N-((R)-2-fluoro-3-hydroxy-3-methylbutyl)-4-(((1r,3R)-3-hydroxy-3-methylcyclobutyl)amino) nicotinamide] | 63 nM | 1 nM | – | –
CC(C)Nc1cc(-c2ccc3cc(C#N)cnn23)ncc1C(=O)NC1CCN(C2COC2)CC1 [Example 86, 6-(3-cyanopyrrolo[1,2-b]pyridazin-7-yl)-4-(isopropylamino)-N-(1-(oxetan-3-yl)piperidin-4-yl) nicotinamide] | 321 nM | – | 4 nM | –
CC(C)(O)[C@H](F)CNC(=O)c1cnc(-c2ccc3cc(C#N)cnn23)cc1Nc1ccc(F)cn1 [Example 687, (R)-6-(3-cyanopyrrolo[1,2-b]pyridazin-7-yl)-N-(2-fluoro-3-hydroxy-3-methylbutyl)-4-((5-fluoro-pyridin-2-yl)amino) nicotinamide] | 42 nM | < 1 nM | – | –
CC(C)(O)[C@H](F)CNC(=O)c1cnc(-c2ccc3cc(C#N)cnn23)cc1Nc1cccnc1F [Example 229, (R)-6-(3-cyanopyrrolo[1,2-b]pyridazin-7-yl)-N-(2-fluoro-3-hydroxy-3-methylbutyl)-4-((2-fluoropyridin-3-yl)amino)nicotinamide] | 135 nM | – | 1 nM | –
CC(C)(O)[C@H](F)CNC(=O)c1cnc(-c2ccc3cc(C#N)cnn23)cc1N[C@@H]1CC[C@H](N)C1 [Example 309, 4-(((1R,3S)-3-aminocyclopentyl)amino)-6-(3-cyanopyrrolo[1,2-b]pyridazin-7-yl)-N-((R)-2-fluoro-3-hydroxy-3-methylbutyl)nicotinamide] | 623 nM | – | 2 nM | –
COC(=O)[C@H](C)NC(=O)c1cnc(-c2ccc3cc(C#N)cnn23)cc1NC12CCC(O)(CC1)CC2 [Example 339, methyl (6-(3-cyano-pyrrolo[1,2-b]pyridazin-7-yl)-4-((4-hydroxy-bicyclo[2.2.2]octan-1-yl)amino)nicotinoyl)-L-alaninate] | 264 nM | – | 1 nM | –
CC(C)(O)[C@H](F)CNC(=O)c1cnc(-c2ccc3cc(C#N)cnn23)cc1N[C@@H]1CCOC1 [Example 194, 6-(3-cyanopyrrolo[1,2-b]pyridazin-7-yl)-N-((R)-2-fluoro-3-hydroxy-3-methylbutyl)-4-(((R)-tetrahydrofuran-3-yl)amino)nicotinamide] | 48 nM | – | < 1 nM | –
COC1CN(C(=O)CNC(=O)c2cnc(-c3ccc4cc(C#N)cnn34)cc2NC23CCC(O)(CC2)CC3)C1 [Example 791, 6-(3-cyanopyrrolo[1,2-b]pyridazin-7-yl)-4-((4-hydroxybicyclo[2.2.2]octan-1-yl)amino)-N-(2-(3-methoxyazetidin-1-yl)-2-oxoethyl)nicotinamide] | 45 nM | 1 nM | – | –
CC(C)(O)[C@H](F)CNC(=O)c1cnc(-c2ccc3cc(C#N)cnn23)cc1NC12CCC(NC(=O)OC3COC3)(CC1)CC2 [Example 279, (R)-oxetan-3-yl (4-((2-(3-cyanopyrrolo[1,2-b]pyridazin-7-yl)-5-((2-fluoro-3-hydroxy-3-methylbutyl)carbamoyl)pyridin-4-yl)amino)bicyclo[2.2.2]octan-1-yl)carbamate] | 29 nM | – | 2 nM | –
CC(C)(O)[C@H](F)CNC(=O)c1cnc(-c2ccc3cc(C#N)cnn23)cc1NC[C@H]1CCNC1 [Example 899, 6-(3-cyanopyrrolo[1,2-b]pyridazin-7-yl)-N-((R)-2-fluoro-3-hydroxy-3-methylbutyl)-4-((((S)-pyrrolidin-3-yl)methyl)amino)nicotinamide] | – | – | 5 nM | EC50 (TNFα; [4]): > 10000 nM
CN1CCC(Nc2cc(-c3ccc4cc(C#N)cnn34)ncc2C(=O)NC[C@@H](F)C(C)(C)O)CC1 [Example 114, (R)-6-(3-cyanopyrrolo[1,2-b]pyridazin-7-yl)-N-(2-fluoro-3-hydroxy-3-methylbutyl)-4-((1-methylpiperidin-4-yl)amino)nicotinamide] | 177 nM | – | 4 nM | –
CC(C)(O)[C@H](F)CNC(=O)c1cnc(-c2ccc3cc(C#N)cnn23)cc1NC1CCNC(=O)C1 (stereo partly drawn) [Example 327, 6-(3-cyanopyrrolo[1,2-b]pyridazin-7-yl)-N-((R)-2-fluoro-3-hydroxy-3-methylbutyl)-4-((2-oxo-piperidin-4-yl)amino)nicotinamide] | 738 nM | – | 1 nM | –
COC[C@@H]1CCCN1c1ccc(Nc2cc(-c3ccc4cc(C#N)cnn34)ncc2C(=O)NC[C@@H](F)C(C)(C)O)cn1 [Example 884, 6-(3-cyanopyrrolo[1,2-b]pyridazin-7-yl)-N-((R)-2-fluoro-3-hydroxy-3-methylbutyl)-4-((6-((S)-2-(methoxymethyl)pyrrolidin-1-yl)pyridin-3-yl)amino)nicotinamide] | – | – | 2 nM | EC50 (TNFα; [4]): 29 nM
CC(C)(O)[C@H](F)CNC(=O)c1cnc(-c2ccc3cc(C#N)cnn23)cc1N[C@H]1CCC[C@@H](N)C1 [Example 533, 4-(((1S,3R)-3-aminocyclohexyl)amino)-6-(3-cyanopyrrolo[1,2-b]pyridazin-7-yl)-N-((R)-2-fluoro-3-hydroxy-3-methylbutyl)nicotinamide] | 70 nM | < 1 nM | – | –
